For orientation: EC50 means the concentration that produces a half-maximal response.

From US10179770B2, “Quinolines derivatives as novel anticancer agents” (GENOSCIENCE PHARMA, priority 2013, dated 2019) come the findings set out here.

For one test, the system named is MIA PaCa-2. As to the kind of experiment: Cell viability assay, pancreatic cancer cell lines. The format is cell-based. To be noted: Homo sapiens; MIA PaCa-2 (Pancreas); 48 h.
The test system of another test is Panc-1. As to the kind of experiment: Cell viability assay, pancreatic cancer cell lines. The format is cell-based. The conditions noted are these: Homo sapiens; Panc-1 (Pancreas); 48 h.
A further test relates to Capan-1. In words: Cell viability assay, pancreatic cancer cell lines. To be noted: Homo sapiens; Capan-1 (Pancreas); 48 h. The format is cell-based.
The test system of another test is BxPC-3. As to the kind of experiment: Cell viability assay, pancreatic cancer cell lines. The format is cell-based. To be noted: Homo sapiens; BxPC-3 (Pancreas); 48 h.
The subject of the next test is U87-MG. In words: CellTiter 96 Aqueous One Solution (MTS) cell proliferation assay. The format is cell-based. The conditions noted are these: Homo sapiens, U-87 MG; U87-MG (Glioma); Cell Titer 96 Aqueous One Solution; 72 h; mean of seven independent triplicate assays. The protocol: The human glioblastoma cell line U87-MG was cultured in Minimum Essential Medium (Life Invitrogen, 31095029) supplemented with 10% fetal bovine serum (GIBCO, 10500-056) and 1 % penicillin-streptomycin (GIBCO, 15140-122). Flasks and plated used for the cell culture were coated with 25 μg/mL poly-D-lysine (Sigma, P7280).
Cell outgrowth was measured using a tetrazolium compound (3-[4,5-dimethylthiazol-2-yl]-5-[3-carboxymethoxyphenyl]-2-[4-sulfophenyl]-2H tetrazolium, inner salt [MTS]) from the CellTiter 96® Aqueous One Solution Cell Proliferation Assay (Promega, Ref G3580) and according to the manufacturer procedure.
5000 cells were plated onto 96-well plates in 100 μL of media per well and were allowed to grow overnight before the assay. Compounds were added at different concentrations to each well, and cell cultures were incubated for 72 h. Control compound was the diluent used for compound resuspension (H2O). After addition of 20 μL of CellTiter 96® Aqueous One Solution, absorbance at 492 nm was measured using a microplate reader Sunrise (Tecan). EC50 values were determined as the dose of compound required to reduce […] values to 50% of the signal obtained for untreated cell cultures. […] The experimental data are analyzed using a computer program, Graphpad Prism (GraphPad Software, Inc. La Jolla, Calif.).

The test system of another test is A375 cell line. In words: Combination of XIX-3 and Zelboraf, Bliss independence model. The conditions noted are these: XIX-3 associated with Zelboraf, 72 h. The format is cell-based, human. The protocol:
The human melanoma cell lines A375 cultured in Dulbecco's modified Eagle's medium supplemented with 10% Fetal Bovine Serum and 1% Penicillin-Streptomycin and maintained at 37° C. with 5% CO2.
A375 cells were plated at 800 cells per well onto 96-well plates in 90 μL of media per well and were allowed to grow overnight before the assay. XIX-3 and Zelboraf, a compound used for treatment for BRAF V600E mutation-positive metastatic melanoma, were added at different concentrations (combinations of five concentrations of XIX-3 and six concentrations of Zelboraf) to each well, and cell cultures were incubated for 72 h. Vehicle (H2O) was used as a control, and all compounds were tested in a constant percentage of vehicle. Cell outgrowth was measured using a […] Aqueous One Solution Cell Proliferation Assay (Promega) and a TECAN Sunrise plate reader. […] The effects of drug-drug combinations are evaluated in the Bliss independence model (Prichard M. N. and Shipman C. Jr. Antivir. Res. 1990 (14) 181-205; Prichard, M. L. et al. Antimicrob Agents Chemother 1993 (37) 540-545). The theoretical additive effect is calculated from the dose-response curves of individual compounds by the equation: Z=X+Y(1−X) (7) Where: • Z represents the total inhibition produced by the combination of drugs X and Y. • X and Y represent the inhibition produced by drugs X and Y alone, respectively. […]

The test system of another test is MOLM-14 cell line. In words: Combination of XXIV-3 and Cytarabine, Bliss independence model. Type of test: cell-based, human. To be noted: XXIV-3 associated with Cytarabine, 72 h. How it is done:
The human leukemia cell line MOLM-14 was cultured in Minimum Essential Medium Alpha Medium (MEM) supplemented with 10% Fetal Bovine Serum (FBS) and 1% Penicillin-Streptomycin and maintained at 37° C. with 5% CO2. 30,000 cells in 180 μL of MEM 5% FBS 1% P/S were plated onto 96-well plates immediately before the assay. Compounds were added at different concentrations (combinations of five concentrations of XXIV-3 and six concentrations of Cytarabine) to each well, and cell cultures were incubated for 72 h. Vehicle (H2O) was used as a control, and all compounds were tested in a constant percentage of vehicle. Cell outgrowth was measured using the CellTiter-Glo luminescent cell viability assay as described by the manufacturer (Promega, Ref G7571 Madison, Wis., USA) using an Infinite F200 Pro TECAN plate reader. […]
The effects of drug-drug combinations are evaluated in the Bliss independence model (Prichard M. N. and Shipman C. Jr. Antivir. Res. 1990 (14) 181-205; Prichard, M. L. et al. Antimicrob Agents Chemother 1993(37) 540-545). The theoretical additive effect is calculated from the dose-response curves of individual compounds by the equation: Z=X+Y(1−X) (7) Where: • Z represents the total inhibition produced by the combination of drugs X and Y. • X and Y represent the inhibition produced by drugs X and Y alone, respectively. […]

Regarding `CCN(CC)C1CCN(C(C)c2cc(-c3ccccc3)nc3ccccc23)CC1.Cl.Cl` (stereo not shown) [XIX-3, 2-phenyl-4-{1-[4-(N,N-diethylamino)piperidin-1-yl]-eth-1-yl}quinoline dihydrochloride], the EC50 was found to be 34 µM with MIA PaCa-2; 34 µM in the test with Panc-1; 27 µM in the test with Capan-1; 33 µM with BxPC-3; 26 µM in the test with U87-MG. For the same compound, in the test on A375 cell line, the “Combination effect on cell viability (Bliss independence model)” value was “additive effect (between −20% to +20% indicates additive effect)”.

On to `CCN(CC)C1CCN(C(C)c2cc(-c3ccc4ccccc4c3)nc3ccccc23)CC1.Cl.Cl` (stereo not shown) [XXIV-3, 2-(2-naphtyl)-4-{1-[4-(N,N-diethylamino)-piperidin-1-yl]-eth-1-yl}quinoline dihydrochloride], for which the “Combination effect on cell viability (Bliss independence model)” value with MOLM-14 cell line is “additive effect (between −20% to +20% indicates additive effect)”.
